From US12365674B2, “Inhibitors of histone deacetylase useful for the treatment or prevention of HIV infection” (Merck Sharp & Dohme LLC, priority 2019, dated 2025)
pIC50: −log10 of the molar value.

Target: T1, HDAC6 (Homo sapiens, UniProt Q9UBN7)
T1 sequence (Q9UBN7 1-1215): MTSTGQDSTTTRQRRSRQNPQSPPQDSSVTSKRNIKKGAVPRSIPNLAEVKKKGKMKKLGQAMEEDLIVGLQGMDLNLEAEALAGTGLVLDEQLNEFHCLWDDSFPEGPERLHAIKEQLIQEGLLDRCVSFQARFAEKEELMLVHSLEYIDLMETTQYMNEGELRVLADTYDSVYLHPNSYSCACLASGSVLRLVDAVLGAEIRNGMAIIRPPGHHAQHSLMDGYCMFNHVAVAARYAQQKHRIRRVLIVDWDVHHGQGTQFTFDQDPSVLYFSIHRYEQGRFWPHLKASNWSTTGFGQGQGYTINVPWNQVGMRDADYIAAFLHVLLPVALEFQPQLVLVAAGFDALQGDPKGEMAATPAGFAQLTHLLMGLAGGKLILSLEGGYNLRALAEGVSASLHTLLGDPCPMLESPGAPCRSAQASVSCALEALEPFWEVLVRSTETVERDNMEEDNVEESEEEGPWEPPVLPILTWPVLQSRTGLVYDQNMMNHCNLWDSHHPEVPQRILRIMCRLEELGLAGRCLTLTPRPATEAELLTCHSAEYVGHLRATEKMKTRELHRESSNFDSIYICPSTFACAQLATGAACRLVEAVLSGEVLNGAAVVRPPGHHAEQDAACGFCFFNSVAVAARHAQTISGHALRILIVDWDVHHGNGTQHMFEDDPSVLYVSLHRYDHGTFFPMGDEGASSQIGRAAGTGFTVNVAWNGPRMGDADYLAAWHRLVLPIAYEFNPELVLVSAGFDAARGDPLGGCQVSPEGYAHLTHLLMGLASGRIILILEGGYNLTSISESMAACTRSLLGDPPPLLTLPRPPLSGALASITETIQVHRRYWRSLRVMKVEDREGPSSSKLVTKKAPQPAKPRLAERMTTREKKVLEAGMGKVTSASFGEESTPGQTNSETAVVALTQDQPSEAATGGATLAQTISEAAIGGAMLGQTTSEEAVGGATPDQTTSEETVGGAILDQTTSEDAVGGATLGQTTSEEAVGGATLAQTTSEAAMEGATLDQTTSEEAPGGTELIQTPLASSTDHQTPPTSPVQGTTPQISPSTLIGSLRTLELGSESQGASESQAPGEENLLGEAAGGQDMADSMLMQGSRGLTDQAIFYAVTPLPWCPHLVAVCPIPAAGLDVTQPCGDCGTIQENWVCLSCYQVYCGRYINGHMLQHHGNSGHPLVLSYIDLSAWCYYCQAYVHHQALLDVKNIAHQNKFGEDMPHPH
Experiment: Human HDAC enzyme inhibitor Fluor-de-Lys assay, HDAC6
Format: biochemical
Settings: 1.3 nM enzyme, 2.5 μM substrate BML-KI104, 3 h pre-incubation, 60 min reaction; read-out: HDAC6_IC50
Text: Recombinant human HDAC8 (catalog number BML-SE145-0100) and HDAC10 (catalog number BML-SE559-0050) enzymes, HDAC substrates BML-KI104 and BML-KI178, and HDAC developer solutions BML-KI105 and BML-KI176 were purchased from Enzo Life Sciences (Farmingdale, NY). Recombinant human HDAC5 and HDAC11 were purchased from BPS Bioscience (San Diego, CA)(catalog numbers 50045 and 50021). Substrate Boc-Lys(TFA)-AMC was obtained from Bachem (Bupendorf, Switzerland) (catalog number 1-1985). HDAC inhibitor suberoylanilide hydroxamic acid (SAHA) was obtained from Indofine (Hillsborough Township, NJ) and trichostatin A (TSA) was obtained from Sigma-Aldrich (St. Louis, MO). […] HEPES pH 8.0 was obtained from Boston BioProducts (Ashland, MA), Tween-20 from Fisher Scientific (Hampton, NH)(catalog number BP337), TCEP from Calbiochem and 7.5% bovine serum albumin (BSA) from Life Technologies (Carlsbad, CA) (catalog number 15260037). 384-well, black assay plates were obtained from Corning (Corning, NY) (catalog number 3575).
The histone deacetylase activities of HDAC1, HDAC2, HDAC3, HDAC6, and HDAC8 were measured in modified Fluor-de-Lys assays in 384-well format. In this assay, HDAC enzymes are initially incubated with an ε-acetyl (or -trifluoroacetyl)-L-lysine-containing substrate with a C-terminal amide having aminomethylcoumarin as the amine component. HDACs cleave the ε-acetyl group, rendering the resulting product susceptible to AMC cleavage by trypsin. The released AMC is then detected by its fluorescence.
The HDAC 1, 2 assays employed buffer A, which contained 20 mM HEPES, pH 8.0, 1 mM MgCl2, 137 mM NaCl, 2.7 mM KCl, 0.05% BSA. The HDAC3/SMRT assay employed buffer B, consisting of 20 mM HEPES, pH 8.0, 1 mM MgCl2, 50 mM NaCl, 2.7 mM KCl, 0.05% BSA, 0.005% Tween 20, and 10 μM IP4. The HDAC6 assay employed buffer C, consisting of 20 mM HEPES, pH 8.0, 1 mM MgCl2, 137 mM NaCl, 2.7 mM KCl, 0.5 mM TCEP (Calbiochem) and 0.05% BSA. The HDAC8 assay employed buffer D, consisting of 20 mM HEPES, pH 8.0, 1 mM MgCl2, 100 mM NaCl, 20 mM KCl, 0.1% n-octyl-β-D-glucoside (Anatrace, Maumee, OH) and 0.05% BSA. All steps were performed at room temperature (23° C.). The assay was performed by pre-incubating serial dilutions of test compounds with the target HDAC prior to initiation with substrate. Each compound was titrated in a 10-point dose response, using a 1:3 fold dilution scheme, with 0.15 ul of solution added by ECHO555 to the plate, followed by the addition of 20 μl of the appropriate HDAC isoform diluted in appropriate assay buffer. […] Final conditions used for each assay were: 1. HDAC 1, 0.3 nM total enzyme, 20 μM substrate BML-K1104; 2. HDAC 2, 1.5 nM total enzyme, 40 μM substrate BML-K1104; 3. HDAC 3/SMRT, 0.3 nM total enzyme, 20 μM substrate BML-K1104; 4. HDAC 6, 1.3 nM total enzyme, 2.5 μM substrate BML-K1104; 5. HDAC 8, 1.3 nM total enzyme, 200 μM substrate BML-K1178; the final high dose of test compound was 30 μM. For potent compounds, 900 nM was used as the final high dose. The reactions were stopped and developed by addition of 30 ul of HDAC developer solution containing a saturating level of HDAC inhibitor as follows: 1.

Question: With `CN1CC(C(=O)N[C@@H](COCCCC(=O)c2ccon2)c2ncc(-c3ccccc3F)[nH]2)C1` [Compound 15, N-[(1R)-1-[5-(2-fluorophenyl)-1H-imidazol-2-yl]-2-(4-isoxazol-3-yl-4-oxobutoxy)ethyl]-1-methylazetidine-3-carboxamide] as the compound, how does the pIC50 read?
Answer: < 6.05

Question: `CCC(=O)CCCOC[C@H](NC(=O)c1cncs1)c1ncc(-c2cc3ccccc3nc2OC)[nH]1` [Compound 5, N-{(1R)-1-[5-(2-methoxyquinolin-3-yl)-1H-imidazol-2-yl]-2-[(4-oxohexyl)oxy]ethyl}-1,3-thiazole-5-carboxamide] was tested. Which pIC50 did it give?
Answer: < 4.35
